USRE40233E1, “Viral variants and methods for detecting same” (Melbourne Health, priority 1996, dated 2008)

Legend:
HBV DNA polymerase [1] = assay: endogenous HBV DNA polymerase assay, PCV-TP sensitivity; assay type: biochemical, Hepatitis B Virus; conditions: 100 μmol/L PCV-TP, serum HBV of patient A
Experimental: (§1) Samples of serum (100 μl) were applied to a 20% w/v sucrose cushion in TNE (20 mmol/L Tris-HCl pH 7.4, 150 mmol/L NaCl2 1 mmol/L EDTA) and centrifuged at 200,000 g for 3 hr at 10° C. using an SW41 rotor in a Beckman Model L8 ultracentrifugc. The pellet was resuspended in 50 mmol/L TRIS-HCl pH 7.5 containing 1.5% v/v Triton-X100, 100 mmol/L Kcl and 0.01% v/v 2-mercaptoethanol and allowed to stand overnight at 4° C. Small aliquots of the suspension were assayed for endogenous HBV DNA polymerase activity essentially as described by Price et al (16). Each assay was performed in a total volume of 30 μl which contained 20 μl of the partly purified HBV and (final concentrations) 30 mmol/L Tris-HCl pH 7.5, 30 mmol/L MgCl2, 10 μmol/L each dATP, dTTP and dGTP, and 0.01 μM [α-^32P]-dCTP (3,000 Ci/mmol) (Dupont NEN, Boston, Mass.). To test for penciclovir triphosphate (PCV-TP) sensitivity, paired assays were performed on each sample, with an excess (100 μmol/L penciclovir-triphosphate included in the reaction mixture in one assay of each pair. After 2 hr at 37° C., reactions were stopped by spotting 20 μl aliquots of each reaction mix onto 25 mm diameter glass fibre discs (Advantex, Tokyo, Japan) which had been pre-soaked in 10% w/v trichloroacetic acid (TCA). Discs were dried before washing in ice-cold 10% w/v TCA containing 10 mmol/L sodium pyrophosphate.
(§2) Three further 10 min. washes in cold 5% v/v TCA followed. The washed discs were finally rinsed in absolute ethanol, air dried, and counted for radioactivity. Inhibition of HBV DNA polymerase activity by PCV-TP was expressed as the percentage difference in activity in the assay mix containing PCV-TP compared to the matched control. Because of limited sample amounts, it was not possible to standardize enzyme activity or to perform replicate assays. Despite the inherent variability of the assay, a general time related decrease in sensitivity of the HBV DNA polymerase to PCV-TP was evident (see Table 1).

HBV DNA polymerase [2] = molecular target: T1, HBV DNA polymerase (Hepatitis B virus genotype D subtype ayw, UniProt P03156, L515M/V508L); assay: as above; assay type: biochemical; conditions: 100 μmol/L PCV-TP, serum HBV of patient A
T1 construct: Small aliquots of the suspension were assayed for endogenous HBV DNA polymerase activity; from tissue; host or cells: patient serum; virions pelleted through a 20% sucrose cushion and treated with Triton X-100
Experimental: as §1, §2

[3] = system: HBV DNA polymerase-reverse transcriptase; conditions: in vitro; cited from earlier work
duck HBV = conditions: in vitro; cited from earlier work
HBV [4] = assay: serum HBV DNA level during antiviral therapy, patient A (post-OLT); assay type: in vivo, Hepatitis B Virus
Description: The patient was transplanted because of end-stage liver failure due to chronic HBV infection. The initial post transplant course was unremarkable but by 5 months there was evidence of recurrent infection and very high levels of viral replication and deteriorating liver function (12). The histological picture was consistent with fibrosing cholestatic hepatitis. Antiviral treatment was commenced approximately 6 months post-OLT. Initially, the patient received intravenous (iv) ganciclovir (GCV; 10 mg/kg/day) in combination with iv foscarnet (PFF; 50-125 mg/kg/day; the dose depending on renal function) (12). This is the treatment of GCV+PFF described in FIG. 2 which lasted for 86 days. Maintenance iv GCV (3.3-6.7 mg/kg/day) three times per week was commenced on day 87 of antiviral treatment (GCV in FIG. 2). Oral famciclovir (250 mg, twice daily) was commenced on day 446 of therapy (FCV [I] in FIG. 2) which was increased to 500 mg twice daily (FCV [II] in […]) on day 500. The patient is currently on this treatment regime. The clinical and virological details of this patient preceding famciclovir therapy have been reported (12).
Serum samples were routinely collected and stored at −70° C. Informed consent was obtained from the patient to use these samples for research purposes. […] The 5 samples chosen for additional studies cover a period of almost four years.
Hepatitis B surface antigen (HbsAg), hepatitis B e antigen (HbeAg), anti-HBe, hepatitis B core antigen (HbcAg) specific IgG and IgM, hepatitis A specific IgM, hepatitis delta antigen and antibody, and anti-hepatitis C virus antibody were measured using commercially available immunoassays (Abbott Laboratories, North Chicago, Ill.). Only the HBV markers were positive. Hepatitis B viral DNA levels were measured and quantified using a capture hybridisation assay according to the manufacturer's directions (Digene Diagnostics Inc., Beltsville, Md.).
This reduction in viraemia was associated with clinical, biochemical and histological improvement (12). […] However, the level of HBV DNA gradually rose over time from 3,000 pg/ml on day 600 (154 days of famciclovir), to 8,800 pg/ml on day 816 (370 days famciclovir), peaking at 29,000 pg/ml on day 1302 (856 days of famciclovir), then stabilising at around 12,000 pg/ml on day 1329 (883 days of famciclovir). […] There was a 1.5 to 2 fold rise in ALT levels over the same time interval (FIG. 2) and no change in clinical status.

HBV [5] = conditions: in man, patient with severe hepatitis B following OLT; cited from earlier work
HBV [6] = assay: response to antiviral treatment, patient C; assay type: in vivo, Hepatitis B Virus
Description: Patient B was undergoing long term famciclovir treatment (>850 days). The amino acid change selected during famciclovir treatment is shown as HBV (patient B) in FIG. 5. […] The HBV isolated during FCV treatment from patient C, is shown as HBV (patient C-FCV). All 3TC resistance mutations which developed during treatment with 3TC is shown as HBV (patient C-3TC). […] A mutation of Met 550 to Ile in the YMDD motif was detected from HBV isolated 32 days (333 days post treatment) after the HBV containing the Thr-Ser substitution was isolated.

duck HBV virus = conditions: oral, in vivo; cited from earlier work

T1 sequence (P03156 whole entry V508L/L515M): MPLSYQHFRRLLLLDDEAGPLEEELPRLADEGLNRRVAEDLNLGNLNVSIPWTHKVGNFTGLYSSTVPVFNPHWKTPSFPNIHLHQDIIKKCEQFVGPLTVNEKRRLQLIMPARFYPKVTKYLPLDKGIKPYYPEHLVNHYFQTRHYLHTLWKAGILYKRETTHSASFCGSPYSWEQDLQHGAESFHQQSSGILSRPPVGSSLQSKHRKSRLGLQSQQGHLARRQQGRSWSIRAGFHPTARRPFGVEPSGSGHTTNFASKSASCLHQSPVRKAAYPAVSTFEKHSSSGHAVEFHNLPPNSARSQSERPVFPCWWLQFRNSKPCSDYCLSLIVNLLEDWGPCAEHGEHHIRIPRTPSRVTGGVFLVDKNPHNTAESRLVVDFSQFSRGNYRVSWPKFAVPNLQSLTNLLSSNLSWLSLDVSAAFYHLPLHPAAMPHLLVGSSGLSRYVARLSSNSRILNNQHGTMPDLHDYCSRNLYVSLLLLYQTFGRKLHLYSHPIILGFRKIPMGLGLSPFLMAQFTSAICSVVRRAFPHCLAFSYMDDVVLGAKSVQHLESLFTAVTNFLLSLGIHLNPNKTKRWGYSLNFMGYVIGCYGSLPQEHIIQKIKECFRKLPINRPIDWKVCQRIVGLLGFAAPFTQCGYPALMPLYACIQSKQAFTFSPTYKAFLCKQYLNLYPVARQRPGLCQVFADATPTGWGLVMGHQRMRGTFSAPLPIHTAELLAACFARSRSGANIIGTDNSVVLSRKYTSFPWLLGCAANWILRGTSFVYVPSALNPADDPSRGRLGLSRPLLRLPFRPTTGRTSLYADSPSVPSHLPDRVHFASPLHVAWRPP

## penciclovir triphosphate [PCV-TP]
HBV DNA polymerase [1]; day 600 of antiviral treatment (154 days famciclovir)
  Inhibition of HBV DNA polymerase by PCV-TP: 30%
HBV DNA polymerase [1]; pretreatment sample
  Inhibition of HBV DNA polymerase by PCV-TP: 40%
HBV DNA polymerase [2]; day 816 of antiviral treatment (370 days famciclovir), Val519Leu/Leu526Met
  Inhibition of HBV DNA polymerase by PCV-TP: 0%
HBV DNA polymerase [2]; day 1329 of antiviral treatment (883 days famciclovir)
  Inhibition of HBV DNA polymerase by PCV-TP: 0%

## Nc1nc2c(ncn2CCC(CO)CO)c(=O)[nH]1 [Peniciclovir, penciclovir]
[3]
  HBV DNA polymerase-reverse transcriptase activity: inhibit
Duck HBV
  activity against duck HBV DNA synthesis: potent inhibitory activity

## Nc1nc(O)c2ncn(COC(CO)CO)c2n1 [GCV, ganciclovir]
HBV [4]; maintenance iv GCV from day 87, over 359 days
  levels of HBV DNA: fluctuating levels of HBV DNA

## CC(=O)OCC(CCn1cnc2cnc(N)nc21)COC(C)=O [famciclovir]
HBV [4]; day 600 (154 days of famciclovir)
  level of HBV DNA: 3,000 pg/ml
HBV [4]; day 816 (370 days famciclovir)
  level of HBV DNA: 8,800 pg/ml
HBV [4]; day 1302 (856 days of famciclovir), peak
  level of HBV DNA: 29,000 pg/ml
HBV [4]; day 1329 (883 days of famciclovir)
  level of HBV DNA: around 12,000 pg/ml
HBV [4]; dose increase to 500 mg twice daily on day 500 (FCV[II])
  HBV DNA change: decrease in HBV DNA
HBV [4]; switch to oral famciclovir 250 mg twice daily on day 446 (FCV[I])
  HBV DNA change: rise in HBV DNA
HBV [5]
  HBV DNA replication: reduce HBV DNA replication
HBV [6]
  response to treatment: did not respond
Duck HBV virus
  intra-hepatic replication of duck HBV virus: inhibit
